Data taken from patent publication US11939399B2, “Synthetic peptide sp4 and use thereof” (TAIAN CITY QIHANG BIOTECHNOLOGY CO., priority 2018, dated 2024).
Where “and” joins values, the source holds several entries; their conditions need not be identical. Equal entries are not always repeated. Entries after “also recorded” stand apart in the source; their conditions may differ. Ends that are not written are not given here.

Key:
[1] = tested on: subcutaneous human osteosarcoma MG-63 xenograft tumor; test: Detection of human osteosarcoma MG-63 cell cycle in nude mice; format: in vivo; details: positive control Paclitaxel group (10 mg/kgBW twice a week)
Protocol: (B) Detection of Human Osteosarcoma MG-63 Cell Cycle in Nude Mice
1. Preparation of Single Cell Suspension of Solid Tumor
1.1 Tumor block was washed 3 times with PBS buffer and cut into small blocks (1-2 mm), then washed 3 times with PBS, and transferred into a 50 ml centrifuge tube.
1.2 0.25% trypsin solution was added to digested at 37′C for 20-40 min, and gently shaken once every 5 min, to separate cells. 1.3 2 to 5 ml of serum-containing medium was added to terminate the trypsin digestion.
1.4 The suspension was stood for 2-3 min, and transferred to a new centrifuge tube, and filtered with a 200-mesh nylon mesh twice.
1.5 The filtered suspension was centrifuged at 1000 rpm for 5 min, and removed the supernatant.
1.6 5 ml of PBS buffer was added to centrifuge again, and removed the supernatant.
1.7 1 to 2 ml of culture solution was added according to the amount of cells, and the cells were counted for standby.
2. Detection of Cell Cycle
1) The cell culture solution was collected into a centrifuge tube for standby. […]
5) Flow cytometry detection and analysis: the red fluorescence was detected by a flow cytometer at the excitation wavelength of 488 nm, and the light scattering was detected also. […]

[2] = Body weight and death of tumor-bearing nude mice in the in vivo efficacy test; design: species or system BALB/c nude mice; details: each treatment group, 4 weeks intravenous administration
Protocol: 4-1. Nude mice were randomly divided into 5 groups: model group, positive control group, sp4 low-dose group, sp4 medium-dose group, and sp4 high-dose group, 6 mice each group (low-dose group: 4 mg/kgBW; medium-dose group: 8 mg/kgBW; high-dose group: 16 mg/kgBW; model group: injected with an equal volume of normal saline; positive control group: injected with paclitaxel at 10 mg/kgBW; administrated twice a week).
4-2. after divided into groups, animals were injected via tail veins at 4:00 pm every day; mice in the model group and the administration group were respectively injected with normal saline and drugs for 4 weeks, and the paclitaxel group was administered paclitaxel twice a week.
4-3, measured the tumor size and body weight on the day of grouping and every other day; TV=0.5*a*b^2, a represents long diameter, b represents short diameter.

[3] = Animal acute toxicity test, maximal tolerable dose (MTD); format: in vivo, ICR mice; details: for Mice weight: 700 mg/kg BW dose group
Protocol: Embodiment 8 Animal Acute Toxicity Test—Maximal Tolerable Dose (MTD)
I. Experimental Conditions: GLP
1. Test animal: Healthy adult ICR mice, male, weight 19-20 g, n=10;
3. Test sample preparation method;
4. Administration route: tail vein injection in mice;
5. Dosing volume: 0.5 ml/time;
6. Frequency of administration: in accordance with FDA guidelines;
Acute toxicity refers to the toxic reaction produced by a drug within a certain period of time after a single dose or multiple-dose within 24 hours. In narrow sense, a single dose toxicity study is to investigate the acute toxic reactions after a single administration of a test substance. This guideline refers to single dose toxicity study in a broad sense, which can be obtained by single or multiple dosing within 24 hours;
II. Detection of Maximal Tolerable Dose (MTD)
Firstly, the working solutions at three concentrations that would not cause the death of test animals were prepared, and one animal was injected via tail veins (1.5 mL, by 3 times). The first dose was 1.5 mL of working solution with 1150 mg/kgBW, which was injected to mice by 3 times via tail veins within 24 hours. On the next day, if no death was found, the remaining 9 animals were injected with the same dose via tail veins (a total of n=10); if the first animal died, the dose would be reduced.

In the case of `CC(=O)O[C@H]1C(=O)[C@@]2(C)[C@H]([C@H](OC(=O)c3ccccc3)[C@]3(O)C[C@H](OC(=O)[C@H](O)[C@@H](NC(=O)c4ccccc4)c4ccccc4)C(C)=C1C3(C)C)[C@]1(OC(C)=O)CO[C@@H]1C[C@@H]2O` [Paclitaxel], the “cell cycle effect in subcutaneous human osteosarcoma xenograft tumor models” value [1] is reported as “significant G1 phase arrest”.

For FLFSLIPSAISG [sp4], the “death in the in vivo efficacy test” value [2] was “no death occurred”, the “weight gain of tumor-bearing nude mice vs control group” value ([2]; P>0.05) was “not significantly different” and the Mice weight ([3]; individual mice No. 1-10, 2018 May 15) was 20.5 g and 20.2 g (2×) and 20.6 g and 20.7 g and 20.4 g and 20.9 g and 20.1 g and 20 g and 20.3 g. For the same compound, the Mice weight ([3]; individual mice No. 1-10, 2018 May 16) was 20.5 g (3×) and 20.7 g and 21.3 g and 21.2 g and 20.8 g and 20.4 g (2×) and 21.5 g, the Mice weight ([3]; individual mice No. 1-10, 2018 May 17) was 21.1 g (3×) and 21.7 g and 21.3 g and 21.4 g and 20.8 g (2×) and 22.2 g and 21.2 g and the Mice weight ([3]; individual mice No. 1-10, 2018 May 18) was 21.5 g (3×) and 22.1 g and 21.9 g (3×) and 21.7 g and 22.7 g and 21.1 g. For the same compound, the Mice weight ([3]; individual mice No. 1-10, 2018 May 19) was 21.9 g and 21.6 g and 22.6 g (2×) and 22.5 g (3×) and 21.8 g (2×) and 23 g, the Mice weight ([3]; individual mice No. 1-10, 2018 May 20) was 22.3 g and 22.8 g (5×) and 22.4 g and 23.7 g and 22.9 g and 22.5 g and the Mice weight ([3]; individual mice No. 1-10, 2018 May 21) was 22.7 g and 22.9 g (2×) and 23.5 g and 23.1 g (3×) and 24.1 g and 23.3 g and 23.4 g. For the same compound, the Mice weight ([3]; individual mice No. 1-10, 2018 May 22) was 23.3 g and 23.5 g (2×) and 24.1 g and 23.6 g and 23.2 g and 24.8 g and 23.8 g (2×) and 23.4 g, the Mice weight ([3]; individual mice No. 1-10, 2018 May 23) was 24.0 g and 24.1 g (2×) and 24.8 g and 24.2 g (2×) and 23.7 g and 25.1 g and 24.5 g and 24.4 g and the Mice weight ([3]; individual mice No. 1-10, 2018 May 24) was 24.7 g (4×) and 25.2 g and 23.9 g and 25.6 g and 25.1 g and 24.8 g and 24.6 g. The Mice weight ([3]; individual mice No. 1-10, 2018 May 25) was 25.3 g and 25.5 g (2×) and 25.8 g and 25.1 g (3×) and 24.8 g and 26.1 g and 24.9 g, the Mice weight ([3]; individual mice No. 1-10, 2018 May 26) was 25.8 g and 25.9 g (3×) and 26.3 g and 25.6 g (2×) and 25.2 g and 26.5 g and 25.5 g and the Mice weight ([3]; individual mice No. 1-10, 2018 May 27) was 26.1 g and 26.2 g (2×) and 26.8 g and 26.3 g (2×) and 26.4 g and 27.2 g and 26 g and 25.8 g. The Mice weight ([3]; individual mice No. 1-10, 2018 May 28) was 27.2 g and 27.1 g and 27.3 g and 26.9 g and 26.8 g (3×) and 27.7 g and 26.4 g and 26.6 g, the Mice weight ([3]; individual mice No. 1-10, 2018 May 29) was 28.1 g and 27.9 g and 28.5 g and 27.2 g and 27.6 g and 27.5 g (2×) and 28.3 g and 27.1 g (2×) and the “Survival Rate %” value ([3]; 700 mg/kg, 3 times/9 h, n=10) was 100%. For the same compound, the “toxic reactions and deaths within 2 weeks after administration” value ([3]; ICR mice, 700 mg/kgBW intravenous) was “no toxic reactions and deaths occurred; also recorded: no behavioral abnormalities and deaths were observed”, the “toxic reactions and deaths within 24 hours” value ([3]; ICR mice, 700 mg/kgBW intravenous, three times within 24 h) was “no toxic reactions and deaths occurred; also recorded: no toxic reaction and death were observed” and the Survival or not ([3]; individual animals No. 1-10, 700 mg/kg, 3 times/9 h) was “Survival”. For the same compound, the MTD at 336 h ([3]; male, mouse, in vivo, iv, ICR mice, tail vein injection, administered by three times within 24 h) was 700 mg/kg.
